# Where two headings read alike, the source gives them in different places.
# How the values were obtained:
# in vivo = settings: for LD50 at 48 h: mouse, in vivo, po, read-out: LD 50 per os
# Experimental: The three compounds were administered in the usual way to lots of 10 male mice (Swiss C.D.) of average weight 20 g. Mortality was assessed after 48 hours for toxicity per os.
# [1] = Diuretic activity (diuresis, Na+, K+, uric acid excretion); assay type: in vivo, Male Swiss C.D. mice; settings: mice; for Uricosuria (coefficient): uric acid by Caraway's method; for Diuresis (coefficient) / K+ (coefficient) / Na+ (coefficient) / Na+/K+: urine sampled 2 and 4 hours
# Experimental: The three compounds were administered to Male Swiss C.D. mice of average weight 22 g. The animals were deprived of food and drink for 2 hours prior to treatment.
# The animals were grouped two by two in cages where their metabolism is to be monitored. Sampling of the urine 2 and 4 hours after treatment. The experiments were made per lot of six pairs. The products were administered at constant volume.
# The following determinations were made:
# Na^+ and K^+ ions expressed in milliequivalents (Millival or M. Eq.) excreted in 2 or 4 hours (Eppendorf Flame Photometer);
# uric acid excreted expressed in mg/2 or 4 hours determined by Caraway's method (Amer. J. Clin. Pathol. 1955. 25 840).
# They are considered in the form of the coefficient: [formula]
# [2] = male Swiss C.D. mice, per os, mortality after 48 hours
compound,measurement,setting,value
"O=C(O)COc1ccc(C(=O)c2cc3ccccc3o2)c(Cl)c1Cl [Example 1, 4-(2-benzofuryl-keto)-2,3-dichloro-phenoxyacetic acid]",LD50 at 48 h,in vivo; [2],< 1000 mg/kg
same,Uricosuria (coefficient),[1]; 100 mg/kg P.O.,1.56
same,Diuresis (coefficient),[1]; 100 mg/kg P.O.,1.3
same,K+ (coefficient),[1]; 100 mg/kg P.O.,1.74
same,Na+ (coefficient),[1]; 100 mg/kg P.O.,1.52
same,Na+/K+,[1]; 100 mg/kg P.O.,0.87
"O=C(O)COc1ccc(C(=O)c2cc3ccccc3s2)c(Cl)c1Cl [Example 2, 4-(2-benzothienyl-keto)-2,3-dichloro-phenoxyacetic acid]",MLD per os,in vivo; [2],> 1000 mg/kg
same,Uricosuria (coefficient),[1]; 100 mg/kg P.O.,1.05
same,Diuresis (coefficient),[1]; 100 mg/kg P.O.,1.2
same,K+ (coefficient),[1]; 100 mg/kg P.O.,0.91
same,Na+ (coefficient),[1]; 100 mg/kg P.O.,1.18
same,Na+/K+,[1]; 100 mg/kg P.O.,1.29
"O=C(O)COc1ccc(C(=O)c2sc3ccccc3c2Cl)c(Cl)c1Cl [Example 3, 4-[2-(3-chloro)-benzothienyl-keto]-2,3-dichloro-phenoxy acetic acid]",LD50 at 48 h,in vivo,> 1000 mg/kg
same,Uricosuria (coefficient),[1]; 100 mg/kg P.O.,1.26
same,Diuresis (coefficient),[1]; 100 mg/kg P.O.,1.3
same,K+ (coefficient),[1]; 100 mg/kg P.O.,1.17
same,Na+ (coefficient),[1]; 100 mg/kg P.O.,1.29
same,Na+/K+,[1]; 100 mg/kg P.O.,1.10
"CCc1oc2ccccc2c1C(=O)c1cc(I)c(O)c(I)c1 [benziodarone, reference compound]",Uricosuria (coefficient),[1]; 20 mg/kg P.O.,1.44
"C=C(CC)C(=O)c1ccc(OCC(=O)O)c(Cl)c1Cl [ethacrynic acid, reference compound]",LD50 at 48 h,in vivo; [2],600 mg/kg
same,Uricosuria (coefficient),[1]; 20 mg/kg P.O.,1.27
same,Diuresis (coefficient),[1]; 20 mg/kg P.O.,2.4
same,K+ (coefficient),[1]; 20 mg/kg P.O.,1.48
same,Na+ (coefficient),[1]; 20 mg/kg P.O.,2.76
same,Na+/K+,[1]; 20 mg/kg P.O.,1.87
"NS(=O)(=O)c1cc(C(=O)O)c(NCc2ccco2)cc1Cl [furosemide, reference compound]",Uricosuria (coefficient),[1]; 20 mg/kg P.O.,1.34
same,Diuresis (coefficient),[1]; 20 mg/kg P.O.,3.0
same,K+ (coefficient),[1]; 20 mg/kg P.O.,1.51
same,Na+ (coefficient),[1]; 20 mg/kg P.O.,4.28
same,Na+/K+,[1]; 20 mg/kg P.O.,2.83
